Columns and labels:
cancer cells = settings: compared with griseofulvin; cited from earlier work
tumor cell lines = test: cell-based screening for inhibition of centrosomal clustering (multipolar mitotic spindles); parameters: species or system human; settings: several different tumor cell lines; screening of Penicillium extracts
Excerpt: Supernumerary centrosomes do almost exclusively occur in a wide variety of neoplastic disorders but not in non-transformed cells. Therefore, inhibition of centrosomal clustering with consequential induction of multipolar spindles and subsequent cell death would specifically target tumor cells with no impact on normal cells with a regular centrosome content. To identify cell-permeable small molecules that inhibit centrosomal clustering in cells with supernumerary centrosomes, we developed a cell-based screening strategy founded on the visualization of microtubules and chromatin.
Therefore, we decided to screen a fungal extract library for compounds inhibiting centrosomal clustering. The fungal extracts were selected based on a chemotaxonomic screening approach, in order to increase the chemodiversity to be tested.
The FIGS. 1 to 12 give representative examples of compounds, which have been prepared in the framework of the present invention, together with their activity, which has been determined as described below.
Cell Culture. All cell lines were cultured in Dulbecco's modified Eagle's Medium (DMEM; PAA Laboratories, Pasching, Austria) supplemented with 10% FCS (PAA). […]
Immunofluorescence. […] Immunostained cells were examined using a Zeiss Axiovert 200 M fluorescence microscope (Göttingen, Germany). […]

Row | SMILES | inhibiting effect on cancer cells relative to griseofulvin (cancer cells) | inhibition of centrosome coalescence (tumor cell lines)
1 | CCCOC1=CC(=O)C[C@@H](C)[C@]12Oc1c(Cl)c(OC)cc(OC)c1C2=O | stronger inhibiting effect on cancer cells than griseofulvin itself | –
2 | COC1=CC(=O)C[C@@H](C)[C@]12Oc1c(Cl)c(OC)cc(OC)c1C2=O [griseofulvin, (2-5-trans)-7-chloro-2,4,6-trimethoxy-6-methylspiro-[benzofuran-2(3H), 1-(2)-cyclohexene]-3,4-dione] | – | inhibitor of centrosome coalescence

— patent US20110178170A1, “GRISEOFULVIN ANALOGUES FOR THE TREATMENT OF CANCER BY INHIBITION OF CENTROSOMAL CLUSTERING” (DKFZ Deutsches Krebsforschungszentrum, priority 2007, published 2011)
